“And” between values parts separate entries of the source, which are not always exact repeats. Equal values may be shown once.
Test system: DOHH2 cells
Experiment: RT2 Glucocorticoid signaling PCR array, DOHH2 cell line (Table 4b)
Assay type: cell-based
Conditions: DOHH2, 4 days

Compound: C[C@]12C=CC(=O)C=C1CC[C@@H]1[C@@H]2[C@@H](O)C[C@@]2(C)[C@H]1CC[C@]2(O)C(=O)CO [Prednisolone, prednisolone]
- ACTB Ct Values: 14.721
- ADARB1 Ct Values: 33.560
- AFF1 Ct Values: 23.992
- AK2 Ct Values: 20.262
- AMPD3 Ct Values: 27.535
- ANGPTL4 Ct Values: 31.538
- ANXA4 Ct Values: 24.997
- ARID68 Ct Values: 23.885
- ASPH Ct Values: 23.369
- ATF4 Ct Values: 19.313
- B2M Ct Values: 18.884
- BCL6 Ct Values: 21.801
- BMPER Ct Values: 39.378
- CEBPA Ct Values: 32.188
- CEBPB Ct Values: 24.317
- COL4A2 Ct Values: 38.993
- CREB1 Ct Values: 22.890
- CREB3 Ct Values: 24.865
- CREB3L4 Ct Values: 24.616
- CTGF Ct Values: 33.728
- CYB561 Ct Values: 39.582
- DDIT4 Ct Values: 24.105
- DUSP1 Ct Values: 27.866
- EDN1 Ct Values: 32.263
- EHD3 Ct Values: 31.098
- ERRFI1 Ct Values: 32.635
- FK8PS Ct Values: 20.912
- FOSL2 Ct Values: 31.543
- GAPDH Ct Values: 16.551
- GDPD1 Ct Values: 27.884
- GHRHR Ct Values: 36.095
- GLUL Ct Values: 34.574
- GOT1 Ct Values: 23.532
- H6PD Ct Values: 24.696
- HNRPLL Ct Values: 33.284
- HPRT1 Ct Values: 21.777
- IL1RN Ct Values: 33.560
- IL6 Ct Values: 34.758
- KLF9 Ct Values: 28.547
- KLF13 Ct Values: 22.546
- LOX Ct Values: 34.158
- MERTK Ct Values: 32.892
- NFKBIA Ct Values: 22.830
- NR3C1 Ct Values: 22.794
- PDCD7 Ct Values: 23.552
- PDGFRB Ct Values: 34.934
- PDP1 Ct Values: 25.682
- PER1 Ct Values: 25.142
- PER2 Ct Values: 24.159
- PIK3R1 Ct Values: 23.850
- PLD1 Ct Values: 37.120
- PLEKHF1 Ct Values: 29.414
- POU2F1 Ct Values: 24.648
- POU2F2 Ct Values: 22.489
- RASA3 Ct Values: 27.803
- RGS2 Ct Values: 25.514
- RHOB Ct Values: 33.162
- RPLP0 Ct Values: 15.128
- SESN1 Ct Values: 22.839
- SGK1 Ct Values: 29.628
- SLC10A6 Ct Values: 36.176
- SLC19A2 Ct Values: 25.455
- SLC22A5 Ct Values: 28.915
- SNTA1 Ct Values: 25.124
- SPHK1 Ct Values: 29.971
- SPSB1 Ct Values: 26.911
- STAT5A Ct Values: 23.565
- STAT5B Ct Values: 22.632
- TBL1XR1 Ct Values: 21.304
- TNF Ct Values: 31.956
- TSC22D3 Ct Values: 23.310
- USP2 Ct Values: 23.501
- USPS4 Ct Values: 26.683
- VDR Ct Values: 26.847
- VLDLR Ct Values: 28.584
- ZFP36 Ct Values: 24.270
- ZHX3 Ct Values: 24.418
- ZNF281 Ct Values: 23.828
- PPC Ct Values (array control, three lines): 18.684 and 18.699 and 19.076
- RTC Ct Values (array control, three lines): 21.449 and 21.464 and 21.483
- ADARB1 ΔCT (B2M) (normalized to B2M): 14.676
- AFF1 ΔCT (B2M) (normalized to B2M): 5.108
- AK2 ΔCT (B2M) (normalized to B2M): 1.378
- AMPD3 ΔCT (B2M) (normalized to B2M): 8.651
- ANGPTL4 ΔCT (B2M) (normalized to B2M): 12.654
- ANXA4 ΔCT (B2M) (normalized to B2M): 6.113
- ARID68 ΔCT (B2M) (normalized to B2M): 5.001
- ASPH ΔCT (B2M) (normalized to B2M): 4.485
- ATF4 ΔCT (B2M) (normalized to B2M): 0.429
- B2M ΔCT (B2M) (normalized to B2M): 0.000
- BCL6 ΔCT (B2M) (normalized to B2M): 2.917
- BMPER ΔCT (B2M) (normalized to B2M): 20.494
- CEBPA ΔCT (B2M) (normalized to B2M): 13.304
- CEBPB ΔCT (B2M) (normalized to B2M): 5.433
- COL4A2 ΔCT (B2M) (normalized to B2M): 20.109
- CREB1 ΔCT (B2M) (normalized to B2M): 4.006
- CREB3L4 ΔCT (B2M) (normalized to B2M): 5.732
- CREB3 ΔCT (B2M) (normalized to B2M): 5.981
- CTGF ΔCT (B2M) (normalized to B2M): 14.844
- CYB561 ΔCT (B2M) (normalized to B2M): 20.698
- DDIT4 ΔCT (B2M) (normalized to B2M): 5.221
- DUSP1 ΔCT (B2M) (normalized to B2M): 8.982
- EDN1 ΔCT (B2M) (normalized to B2M): 13.379
- EHD3 ΔCT (B2M) (normalized to B2M): 12.214
- ERRFI1 ΔCT (B2M) (normalized to B2M): 13.751
- FK8PS ΔCT (B2M) (normalized to B2M): 2.028
- FOSL2 ΔCT (B2M) (normalized to B2M): 12.659
- GAPDH ΔCT (B2M) (normalized to B2M): −2.333
- GDPD1 ΔCT (B2M) (normalized to B2M): 9.000
- GHRHR ΔCT (B2M) (normalized to B2M): 17.211
- GLUL ΔCT (B2M) (normalized to B2M): 15.690
- GOT1 ΔCT (B2M) (normalized to B2M): 4.648
- H6PD ΔCT (B2M) (normalized to B2M): 6.085
- HNRPLL ΔCT (B2M) (normalized to B2M): 14.400
- HPRT1 ΔCT (B2M) (normalized to B2M): 2.893
- IL1RN ΔCT (B2M) (normalized to B2M): 14.676
- IL6 ΔCT (B2M) (normalized to B2M): 19.457
- KLF9 ΔCT (B2M) (normalized to B2M): 9.663
- KLF13 ΔCT (B2M) (normalized to B2M): 3.662
- LOX ΔCT (B2M) (normalized to B2M): 15.274
- MERTK ΔCT (B2M) (normalized to B2M): 14.008
- NFKBIA ΔCT (B2M) (normalized to B2M): 3.946
- NR3C1 ΔCT (B2M) (normalized to B2M): 3.910
- PDCD7 ΔCT (B2M) (normalized to B2M): 4.668
- PDGFRB ΔCT (B2M) (normalized to B2M): 16.050
- PDP1 ΔCT (B2M) (normalized to B2M): 6.798
- PER1 ΔCT (B2M) (normalized to B2M): 6.258
- PER2 ΔCT (B2M) (normalized to B2M): 5.275
- PIK3R1 ΔCT (B2M) (normalized to B2M): 4.966
- PLD1 ΔCT (B2M) (normalized to B2M): 18.236
- PLEKHF1 ΔCT (B2M) (normalized to B2M): 10.530
- POU2F1 ΔCT (B2M) (normalized to B2M): 5.764
- POU2F2 ΔCT (B2M) (normalized to B2M): 3.605
- RASA3 ΔCT (B2M) (normalized to B2M): 8.919
- RGS2 ΔCT (B2M) (normalized to B2M): 6.630
- RHOB ΔCT (B2M) (normalized to B2M): 14.278
- RPLP0 ΔCT (B2M) (normalized to B2M): −3.756
- SESN1 ΔCT (B2M) (normalized to B2M): 3.955
- SGK1 ΔCT (B2M) (normalized to B2M): 10.744
- SLC10A6 ΔCT (B2M) (normalized to B2M): 17.292
- SLC19A2 ΔCT (B2M) (normalized to B2M): 6.571
- SLC22A5 ΔCT (B2M) (normalized to B2M): 10.031
- SNTA1 ΔCT (B2M) (normalized to B2M): 6.240
- SPHK1 ΔCT (B2M) (normalized to B2M): 11.087
- SPSB1 ΔCT (B2M) (normalized to B2M): 8.027
- STAT5A ΔCT (B2M) (normalized to B2M): 5.001
- STAT5B ΔCT (B2M) (normalized to B2M): 3.748
- TBL1XR1 ΔCT (B2M) (normalized to B2M): 2.420
- TNF ΔCT (B2M) (normalized to B2M): 13.072
- TSC22D3 ΔCT (B2M) (normalized to B2M): 4.426
- USP2 ΔCT (B2M) (normalized to B2M): 4.617
- USPS4 ΔCT (B2M) (normalized to B2M): 7.799
- VDR ΔCT (B2M) (normalized to B2M): 7.963
- VLDLR ΔCT (B2M) (normalized to B2M): 9.700
- ZFP36 ΔCT (B2M) (normalized to B2M): 5.386
- ZHX3 ΔCT (B2M) (normalized to B2M): 5.534
- ZNF281 ΔCT (B2M) (normalized to B2M): 4.944
- RTC ΔCT (B2M) (normalized to B2M, array control, three lines): 2.565 and 2.580 and 2.599
- ADARB1 ΔΔCT (vs DMSO): 1.867
- AFF1 ΔΔCT (vs DMSO): −0.567
- AK2 ΔΔCT (vs DMSO): 0.053
- AMPD3 ΔΔCT (vs DMSO): 1.259
- ANGPTL4 ΔΔCT (vs DMSO): 0.529
- ANXA4 ΔΔCT (vs DMSO): 0.305
- ARID68 ΔΔCT (vs DMSO): 0.129
- ASPH ΔΔCT (vs DMSO): 0.524
- ATF4 ΔΔCT (vs DMSO): 0.282
- BCL6 ΔΔCT (vs DMSO): 0.397
- BMPER ΔΔCT (vs DMSO): 1.466
- CEBPA ΔΔCT (vs DMSO): −2.341
- CEBPB ΔΔCT (vs DMSO): 0.531
- COL4A2 ΔΔCT (vs DMSO): 6.804
- CREB1 ΔΔCT (vs DMSO): 0.085
- CREB3L4 ΔΔCT (vs DMSO): 0.336
- CREB3 ΔΔCT (vs DMSO): 0.061
- CTGF ΔΔCT (vs DMSO): 0.142
- CYB561 ΔΔCT (vs DMSO): 1.917
- DDIT4 ΔΔCT (vs DMSO): 0.296
- DUSP1 ΔΔCT (vs DMSO): 0.387
- EDN1 ΔΔCT (vs DMSO): 1.155
- EHD3 ΔΔCT (vs DMSO): −1.092
- ERRFI1 ΔΔCT (vs DMSO): 0.235
- FK8PS ΔΔCT (vs DMSO): −0.948
- FOSL2 ΔΔCT (vs DMSO): −0.099
- GDPD1 ΔΔCT (vs DMSO): 0.477
- GHRHR ΔΔCT (vs DMSO): −1.464
- GLUL ΔΔCT (vs DMSO): −1.434
- GOT1 ΔΔCT (vs DMSO): 0.230
- H6PD ΔΔCT (vs DMSO): 0.377
- HNRPLL ΔΔCT (vs DMSO): 3.085
- KLF9 ΔΔCT (vs DMSO): −0.019
- KLF13 ΔΔCT (vs DMSO): −0.280
- LOX ΔΔCT (vs DMSO): 0.721
- MERTK ΔΔCT (vs DMSO): 0.020
- NFKBIA ΔΔCT (vs DMSO): 0.064
- NR3C1 ΔΔCT (vs DMSO): 0.317
- PDCD7 ΔΔCT (vs DMSO): 0.021
- PDP1 ΔΔCT (vs DMSO): −0.056
- PER1 ΔΔCT (vs DMSO): 0.323
- PER2 ΔΔCT (vs DMSO): −0.358
- PIK3R1 ΔΔCT (vs DMSO): −0.202
- PLD1 ΔΔCT (vs DMSO): 0.207
- PLEKHF1 ΔΔCT (vs DMSO): −0.347
- POU2F1 ΔΔCT (vs DMSO): 0.395
- POU2F2 ΔΔCT (vs DMSO): 0.145
- RASA3 ΔΔCT (vs DMSO): 0.776
- RGS2 ΔΔCT (vs DMSO): 0.849
- RHOB ΔΔCT (vs DMSO): 0.626
- SESN1 ΔΔCT (vs DMSO): −1.262
- SGK1 ΔΔCT (vs DMSO): 2.120
- SLC10A6 ΔΔCT (vs DMSO): 1.818
- SLC19A2 ΔΔCT (vs DMSO): −0.020
- SLC22A5 ΔΔCT (vs DMSO): 0.648
- SNTA1 ΔΔCT (vs DMSO): 0.665
- SPHK1 ΔΔCT (vs DMSO): −0.581
- SPSB1 ΔΔCT (vs DMSO): −0.074
- STAT5A ΔΔCT (vs DMSO): −0.227
- STAT5B ΔΔCT (vs DMSO): 0.254
- TBL1XR1 ΔΔCT (vs DMSO): 0.032
- TNF ΔΔCT (vs DMSO): 0.753
- TSC22D3 ΔΔCT (vs DMSO): −1.741
- USP2 ΔΔCT (vs DMSO): −0.478
- USPS4 ΔΔCT (vs DMSO): 0.209
- VDR ΔΔCT (vs DMSO): −0.434
- VLDLR ΔΔCT (vs DMSO): 1.543
- ZFP36 ΔΔCT (vs DMSO): 0.225
- ZHX3 ΔΔCT (vs DMSO): −0.657
- ZNF281 ΔΔCT (vs DMSO): −0.113
